The numbers were not newly measured in US20260284040A1, “COMBINATION OF A PARP1 INHIBITOR AND A SELECTIVE ESTROGEN DEGRADER FOR TREATING CANCER” (ASTRAZENECA AB, priority 2023, published 2026), which cites them from elsewhere.

Series [1] deals with human bone marrow progenitor cells. Particulars: in vitro.
For series [2], the system named is ER+ cell lines and PDX models. Particulars: wide range of ER+ cell lines and PDX models, including ESR1m models.
The conditions of series [3]: in vivo.

As for `CCc1cc2ncc(CN3CCN(c4ccc(C(=O)NC)nc4)CC3)cc2[nH]c1=O` [AZD5305, 5-{4-[(7-ethyl-6-oxo-5,6-dihydro-1,5-naphthyridin-3-yl)methyl]piperazin-1-yl}-N-methylpyridine-2-carboxamide], the “Effects on human bone marrow progenitor cells” value in series [1] was “reduced effects”.

Consider `C[C@@H]1Cc2c(ccc3[nH]ncc23)[C@@H](c2ccc(NC3CN(CCCF)C3)cn2)N1CC(F)(F)F` [Camizestrant, N-[1-(3-fluoropropyl)azetidin-3-yl]-6-[(6S,8R)-8-methyl-7-(2,2,2-trifluoroethyl)-6,7,8,9-tetrahydro-3H-pyrazolo[4,3-]isoquinolin-6-yl]-pyridin-3-amine], for which, in series [2], the Antitumour activities entry is on record as “demonstrated antitumour activities”. Also, the Oral bioavailability entry in series [3] is reported as “orally bioavailable”.

For the molecule `C[C@]12CC[C@@H]3c4ccc(O)cc4C[C@@H](CCCCCCCCC[S+]([O-])CCCC(F)(F)C(F)(F)F)[C@H]3[C@@H]1CC[C@@H]2O` (stereo partly shown) [fulvestrant], in series [3], the Oral bioavailability result is given as “not orally bioavailable”.
